In publication PMC8713167, “New Insights into the Structure–Activity Relationship and Neuroprotective Profile of Benzodiazepinone Derivatives of Neurounina-1 as Modulators of the Na^+/Ca^2+ Exchanger Isoforms” (Journal of Medicinal Chemistry, 2021):

Assays:
NCX1 = target: T1, NCX1 (Canis lupus familiaris, UniProt P23685); assay: High-throughput screening of NCX1 reverse mode, Fluo-4-loaded BHK-NCX1 cells, Na+-free pulse; format: cell-based, dog; details: for Fluo-experiments on BHK-NCX1: NCX1 reverse mode, Na+-free, CTL (100), concentration not given (10 nM and 10 μM screened); for Activity on NCX (SAR discussion, in words): NCX1/NCX3 reverse-mode screening
T1 construct: expressed in transfected cells; host or cells: BHK (baby hamster kidney) cells, stably transfected

NCX3 = target: T2, NCX3 (Rattus norvegicus, UniProt P70549); assay: High-throughput screening of NCX3 reverse mode, Fluo-4-loaded BHK-NCX3 cells, Na+-free pulse; format: cell-based; details: CTL (100), concentration not given (10 nM and 10 μM screened)
T2 construct: expressed in transfected cells; host or cells: BHK (baby hamster kidney) cells, stably transfected
T2 sequence (P70549 31-927): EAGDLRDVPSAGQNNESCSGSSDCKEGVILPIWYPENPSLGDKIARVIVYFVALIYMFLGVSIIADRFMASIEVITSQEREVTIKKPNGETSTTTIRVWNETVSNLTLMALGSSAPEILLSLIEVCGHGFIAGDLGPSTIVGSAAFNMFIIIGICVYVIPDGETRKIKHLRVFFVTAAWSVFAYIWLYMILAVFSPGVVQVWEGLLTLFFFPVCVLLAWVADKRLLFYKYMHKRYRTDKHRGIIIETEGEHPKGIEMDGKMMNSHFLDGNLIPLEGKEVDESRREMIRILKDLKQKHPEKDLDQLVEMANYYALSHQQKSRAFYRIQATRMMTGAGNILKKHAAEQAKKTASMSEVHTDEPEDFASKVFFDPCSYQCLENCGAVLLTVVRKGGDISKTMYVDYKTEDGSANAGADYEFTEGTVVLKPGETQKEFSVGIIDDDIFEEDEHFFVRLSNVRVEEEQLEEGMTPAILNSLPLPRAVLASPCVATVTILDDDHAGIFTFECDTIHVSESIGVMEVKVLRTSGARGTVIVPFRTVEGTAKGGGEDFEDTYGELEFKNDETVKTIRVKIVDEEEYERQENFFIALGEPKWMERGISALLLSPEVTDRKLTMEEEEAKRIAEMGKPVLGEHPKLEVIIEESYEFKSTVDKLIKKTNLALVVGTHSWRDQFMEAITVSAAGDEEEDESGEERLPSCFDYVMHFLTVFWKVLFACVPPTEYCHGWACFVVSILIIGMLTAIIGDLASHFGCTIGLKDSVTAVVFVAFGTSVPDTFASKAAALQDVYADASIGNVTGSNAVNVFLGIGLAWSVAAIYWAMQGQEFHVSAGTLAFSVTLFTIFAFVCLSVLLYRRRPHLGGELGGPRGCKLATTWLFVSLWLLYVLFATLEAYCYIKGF

SMILES	Fluo-experiments on BHK-NCX1 (NCX1)	Fluo-experiments on BHK-NCX3 (NCX3)	Activity on NCX (SAR discussion, in words) (NCX1)	melting point [°C]
O=C1CN=C(c2ccccc2)c2cc([N+](=O)[O-])ccc2N1CCN1CCN(c2cccc3ccccc23)CC1 [Compound 11, 1-{2-[4-(Naphthalen-1-yl)piperazin-1-yl]ethyl}-7-nitro-5-phenyl-1H-benzo[e][1,4]diazepin-2(3H)-one]	100	100	–	–
Cc1nccn1C(=O)CN1C(=O)CN=C(c2ccccc2)c2cc([N+](=O)[O-])ccc21 [Compound 17, 1-[2-(2-Methyl-1H-imidazole-1-yl)-2-oxoethyl]-7-nitro-5-phenyl-1H-benzo[e][1,4]diazepin-2(3H)-one]	100	100	–	–
O=C(CN1C(=O)CN=C(c2ccccc2)c2cc([N+](=O)[O-])ccc21)N1CCN(c2ccccc2)CC1 [Compound 18, 7-Nitro-1-[2-Oxo-2-(4-phenylpiperazin-1-yl)ethyl]-5-phenyl-1H-benzo[e][1,4]diazepin-2(3H)-one]	100	100	–	–
O=C1CN=C(c2ccccc2)c2cc(Cl)ccc2N1CN1CCCC1 [Compound 2, 7-Chloro-5-phenyl-1-(pyrrolidin-1-ylmethyl)-1H-benzo[e][1,4]diazepin-2(3H)-one]	100	100	inactivity	–
O=C1CN=C(c2ccccc2)c2cc([N+](=O)[O-])ccc2N1CCn1ccnc1 [Compound 8, 1-[2-(1H-Imidazole-1-yl)ethyl]-7-nitro-5-phenyl-1H-benzo[e][1,4]diazepin-2(3H)-one]	100	100	complete loss of activity	–
CC1CCCN(CCN2C(=O)CN=C(c3ccccc3)c3cc([N+](=O)[O-])ccc32)C1 (stereo not drawn) [Compound 7, 1-[2-(3-Methylpiperidin-1-yl)ethyl]-7-nitro-5-phenyl-1H-benzo[e][1,4]diazepin-2(3H)-one]	100	100	inactive	–
O=C1CN=C(c2ccccc2)c2cc([N+](=O)[O-])ccc2N1CN1CCCCC1 [Compound 3, 7-Nitro-5-phenyl-1-(piperidin-1-ylmethyl)-1H-benzo[e][1,4]diazepin-2(3H)-one]	100	100	complete loss of activity	–
O=C1CN=C(c2ccccc2)c2cc([N+](=O)[O-])ccc2N1CC(=O)n1ccnc1 [Compound 16, 1-[2-(1H-Imidazole-1-yl)-2-oxoethyl]-7-nitro-5-phenyl-1H-benzo[e][1,4]diazepin-2(3H)-one]	100	100	–	120 to 121
Cc1nccn1CCN1C(=O)CN=C(c2ccccc2)c2cc([N+](=O)[O-])ccc21 [Compound 9, 1-[2-(2-Methyl-1H-imidazole-1-yl)ethyl]-7-nitro-5-phenyl-1H-benzo[e][1,4]diazepin-2(3H)-one]	100	100	–	–
O=C(CN1C(=O)CN=C(c2ccccc2)c2cc([N+](=O)[O-])ccc21)N1CCCC1 [Compound 12, 7-Nitro-1-[2-Oxo-2-(pyrrolidin-1-yl)ethyl]-5-phenyl-1H-benzo[e][1,4]diazepin-2(3H)-one]	100	100	–	–
O=C(CN1C(=O)CN=C(c2ccccc2)c2cc([N+](=O)[O-])ccc21)N1CCCCC1 [Compound 13, 7-Nitro-1-[2-Oxo-2-(piperidin-1-yl)ethyl]-5-phenyl-1H-benzo[e][1,4]diazepin-2(3H)-one]	100	100	–	–
CC1CCCCN1CCN1C(=O)CN=C(c2ccccc2)c2cc([N+](=O)[O-])ccc21 (stereo not drawn) [Compound 6, 1-[2-(2-Methylpiperidin-1-yl)ethyl]-7-nitro-5-phenyl-1H-benzo[e][1,4]diazepin-2(3H)-one]	100	100	inactive	–
O=C1CN=C(c2ccccc2)c2cc([N+](=O)[O-])ccc2N1CCN1CCN(c2ccccc2)CC1 [Compound 10, 7-Nitro-5-phenyl-1-[2-(4-phenylpiperazin-1-yl)ethyl]-1H-benzo[e][1,4]diazepin-2(3H)-one]	100	100	–	–
CC1CCCN(C(=O)CN2C(=O)CN=C(c3ccccc3)c3cc([N+](=O)[O-])ccc32)C1 (stereo not drawn) [Compound 15, 1-3-[(3-Methylpiperidin-1-yl)-2-oxoethyl]-7-nitro-5-phenyl-1H-benzo[e][1,4]-diazepin-2(3H)-one]	100	100	–	–
O=C(CN1C(=O)CN=C(c2ccccc2)c2cc([N+](=O)[O-])ccc21)N1CCN(c2cccc3ccccc23)CC1 [Compound 19, 1-{2-[4-(Naphthalen-1-yl)piperazin-1-yl]-2-oxoethyl}-7-nitro-5-phenyl-1H-benzo[e][1,4]-diazepin-2(3H)-one]	100	100	–	–
O=C1CN=C(c2ccccc2)c2cc([N+](=O)[O-])ccc2N1CCN1CCCCC1 [Compound 5, 7-Nitro-5-phenyl-1-[2-(piperidin-1-yl)ethyl]-1H-benzo[e][1,4]diazepin-2(3H)-one]	100	100	inactive	–
